{
  "source": "patent US20100316622A1",
  "about": "“DIAGNOSIS AND TREATMENT OF CARDIAC DISORDERS” (UNIVERSITY OF MIAMI, priority 2007, published 2010)",
  "key": {"[1]": {"system": "NOS1−/− cardiomyocytes", "experiment": "Sarcoplasmic reticulum Ca2+ stores by rapid caffeine infusion", "conditions": "for Sarcoplasmic reticulum Ca2+ content (% [Ca2+]i, percent change from baseline): NOS1−/− cardiomyocytes, 4 Hz, caffeine 10 mmol/L, untreated NOS1−/− 13.7±3.1%; for Ca2+ reserves: NOS1−/− myocytes at 4 Hz", "experimental": "In order to assess calcium stores, caffeine (10 mmol/L) was rapidly infused after a 10 second pause following steady-state pacing at 1 and 4 Hz. In order to calculate the [Ca^2+]i of caffeine pulse was normalized as follows:\n([Ca^2+]i at caffeine−[Ca^2+]i at pacing)/[Ca^2+]i at pacing×100.\nExperiments were then repeated after incubating the cells with previously mentioned drugs."}, "[2]": {"system": "NOS1−/− myocytes", "experiment": "SR Ca2+ leakage protocol, Example 1 (0Na/0Ca buffer, caffeine)", "format": "cell-based, mouse", "procedure": "The hearts were cannulated and perfused trough the aorta with Ca^2+-free bicarbonate buffer containing (in mM) 120 NaCl, 5.4 KCl, 1.2 MgSO4, 1.2 NaH2PO4, 5.6 glucose, 20 NaHCO3, 10 2,3-butanedione monoxime (BDM; Sigma), and 5 taurine (Sigma), gassed with 95% O2-5% CO2, followed by enzymatic digestion with collagenase type 2 (1 mg/ml; Worthington) and protease type XIV (0.1 mg/ml; Sigma). Ventricular myocytes were obtained by mechanical disruption of digested hearts, filtration, centrifugation, and resuspension in a Tyrode solution containing (in mM) 0.125 mM CaCl2 144 NaCl, 1 MgCl2, 10 HEPES, 5.6 Glucose, 1.2 NaHPO4, 5 KCl, adjusted to a pH of 7.4 with NaOH. Then, the Ca^2+ content of the buffer was increased in steps until reaching 1.8 mM.\nMyocytes were incubated with 5 μmol/L fura-2/AM (Molecular Probes, Eugene, Oreg.) then transferred to a Lucite chamber on the stage of an inverted microscope (Nikon TE 200), continuously superfused with Tyrode solution. Sarcomere length (SL) and Ca^2+ transients ([Ca^2+]i) were measured in myocytes stimulated at 1, 2, 4, 6 and 8 Hz. All experiments were conducted at 37° C.\nCalcium leakage was assessed as described by Shannon et al (Shannon, T. R. et al., 2002. Circ. Res. 91:594-600). Ventricular myocytes were paced by field stimulation at the different frequencies in normal Tyrode until cellular Ca^2+ transients reached a steady state. After the last pulse, the superfusing solution was rapidly switched to 0Na^+-0Ca^2+ (Na^+ replaced by Li^+) Tyrode with or without 1 mmol/L tetracaine. In the control condition, [Ca^2+]i was monitored while 0Na^+-0Ca^2+ Tyrode buffer was applied at least 40 seconds, then a rapid pulse of 10 mm/L caffeine was added to cause SR Ca^2+ release. The difference between the basal and the peak total cytosolic [Ca^2+]i in the presence of caffeine is therefore [Ca^2+]T. In the test condition, 0Na+0Ca^2+ Tyrode was applied with tetracaine. In this condition, the leakage is blocked and the difference in [Ca^2+]T between tetracaine and control condition corresponds to diastolic leakage. […]"}, "[3]": {"system": "wt myocytes", "experiment": "Force-frequency response: sarcomere shortening and calcium transients", "format": "cell-based, mouse", "conditions": "hydralazine 0.01, nitroglycerin 0.01, DETA/NO 0.1 mmol/L, 5 minutes incubation", "procedure": "(§1) Isolated Myocytes Preparation: Cardiac myocytes were isolated and prepared from mouse hearts as described in detail by Khan et al. (Khan S. A. et al. Circ Res 2003;92:1322-1329). Sarcomere length (SL) and [Ca^2+]i were measured simultaneously in myocytes stimulated at 1, 2, 4, 6 and 8 Hz. […] All experiments were conducted at 37° C. SL was recorded with an IonOptix iCCD camera. Change in average SL was determined by Fast Fourier Transform analysis of the Z-line density trace to the frequency domain, and SL Shortening was calculated as follows: (diastolic SL—systolic SL)/diastolic SL. Intracellular calcium, was measured using the Ca^2+-sensitive dye Fura-2 and a dual-excitation spectrofluorometer (IonOptix), alternately excited with a xenon lamp at wavelengths of 365 and 380 nm The emission fluorescence was reflected through a barrier filter (510±15 nm) to a photomultiplier tube. The Fura-2 fluorescence ratio, i.e., the ratio of the photon live count detected by the excitation at 365 nm compared with 380 nm, represents [Ca^2]i."}, "[4]": {"system": "NOS1−/− myocytes", "experiment": "Force-frequency response: sarcomere shortening and calcium transients", "format": "cell-based, mouse", "conditions": "hydralazine 0.01, nitroglycerin 0.01, DETA/NO 0.1 mmol/L, 5 minutes incubation", "procedure": "as §1"}, "[5]": {"system": "NOS1−/− myocytes", "experiment": "Assessment of SR Ca2+ leakage with tetracaine, Example 2", "format": "cell-based, mouse", "procedure": "Assessment of SR Ca^2+ leakage: Calcium leakage was assessed as described by Shannon et al (Shannon T. R. et al. Circ Res 2002; 91:594-600). Ventricular myocytes were paced by field stimulation at the different frequencies in normal Tyrode until cellular Ca^2+ transients reached a steady state. After the last pulse, the superfusing solution was rapidly switched to 0Na^+-0Ca^2+(Na^+ replaced by Li^+) Tyrode with or without 1 mmol/L tetracaine. In the control condition, [Ca^2+]i was monitored while 0Na^+-0Ca^2+ Tyrode buffer was applied at least 40 seconds, rapid pulse of 10 mm/L caffeine was added to cause SR Ca^2+ release. The difference between the basal and the peak total cytosolic [Ca^2+]i in the presence of caffeine is, therefore, [Ca^2+]τ. In the test condition, 0Na^+0Ca^2+ Tyrode was applied with tetracaine. In this condition, the leakage is blocked and the difference in [Ca^2+]τ between tetracaine and control condition is diastolic leakage. To calculate [Ca^2+]τ in the SR, the total SR volume was considered 3% of the cell volume and the cytosol volume, 65% of the cell volume."}, "[6]": {"molecular_target": "NADPH oxidase (NOX)", "experiment": "NADPH oxidase dependent ONOO− production, APF fluorescence in heart homogenates", "format": "biochemical, mouse", "conditions": "NOS1−/− heart extracts, NADPH 0.3 mmol/L; read-out: IC50, NOX-dependent peroxynitrite production", "procedure": "NADPH oxidase dependent and XOR dependent ONOO— production: NADPH oxidase and XOR dependent ONOO— production was measured in heart homogenates using p-aminophenyl fluorescein (APF) as indicator. Proteins were diluted in modified Krebs-HEPES buffer and incubated with NADPH or xanthine for 30 minutes at 37° C. APF was added just before the fluorescence readings, measuring at 515 nm with excitation at 490 nm."}, "[7]": {"system": "NADPH oxidase (NOX)", "experiment": "NOX-dependent superoxide production, lucigenin chemiluminescence in heart homogenates", "format": "biochemical, mouse", "conditions": "NOS1−/− cardiac homogenates", "procedure": "NOX-dependent superoxide production: NADPH-dependent superoxide production was measured in heart homogenates using lucigenin (5 μmol/L)-enhanced chemiluminescence (β-NADPH 300 μmol/L; room temperature) on a microplate luminometer (Veritas, Turner Biosystems, Sunnyvale, Calif.). Briefly, proteins were diluted in modified Krebs-HEPES buffer. NADPH and lucigenin were added to wells just before reading. Chemiluminescence readings were expressed as integrated light units. […] Experiments also were performed in the presence of the flavoprotein inhibitor diphenyleneiodonium (DPI, 0.01 mmol/L)."}, "[8]": {"molecular_target": "T1, xanthine oxidoreductase (XOR) (Mus musculus, UniProt Q00519)", "T1 construct": "NOS 1^−/− cardiac homogenates as source of the enzyme; from tissue; host or cells: heart homogenate of NOS1-/- mice, passed through Sephadex G-25", "T1 sequence (Q00519 whole entry)": "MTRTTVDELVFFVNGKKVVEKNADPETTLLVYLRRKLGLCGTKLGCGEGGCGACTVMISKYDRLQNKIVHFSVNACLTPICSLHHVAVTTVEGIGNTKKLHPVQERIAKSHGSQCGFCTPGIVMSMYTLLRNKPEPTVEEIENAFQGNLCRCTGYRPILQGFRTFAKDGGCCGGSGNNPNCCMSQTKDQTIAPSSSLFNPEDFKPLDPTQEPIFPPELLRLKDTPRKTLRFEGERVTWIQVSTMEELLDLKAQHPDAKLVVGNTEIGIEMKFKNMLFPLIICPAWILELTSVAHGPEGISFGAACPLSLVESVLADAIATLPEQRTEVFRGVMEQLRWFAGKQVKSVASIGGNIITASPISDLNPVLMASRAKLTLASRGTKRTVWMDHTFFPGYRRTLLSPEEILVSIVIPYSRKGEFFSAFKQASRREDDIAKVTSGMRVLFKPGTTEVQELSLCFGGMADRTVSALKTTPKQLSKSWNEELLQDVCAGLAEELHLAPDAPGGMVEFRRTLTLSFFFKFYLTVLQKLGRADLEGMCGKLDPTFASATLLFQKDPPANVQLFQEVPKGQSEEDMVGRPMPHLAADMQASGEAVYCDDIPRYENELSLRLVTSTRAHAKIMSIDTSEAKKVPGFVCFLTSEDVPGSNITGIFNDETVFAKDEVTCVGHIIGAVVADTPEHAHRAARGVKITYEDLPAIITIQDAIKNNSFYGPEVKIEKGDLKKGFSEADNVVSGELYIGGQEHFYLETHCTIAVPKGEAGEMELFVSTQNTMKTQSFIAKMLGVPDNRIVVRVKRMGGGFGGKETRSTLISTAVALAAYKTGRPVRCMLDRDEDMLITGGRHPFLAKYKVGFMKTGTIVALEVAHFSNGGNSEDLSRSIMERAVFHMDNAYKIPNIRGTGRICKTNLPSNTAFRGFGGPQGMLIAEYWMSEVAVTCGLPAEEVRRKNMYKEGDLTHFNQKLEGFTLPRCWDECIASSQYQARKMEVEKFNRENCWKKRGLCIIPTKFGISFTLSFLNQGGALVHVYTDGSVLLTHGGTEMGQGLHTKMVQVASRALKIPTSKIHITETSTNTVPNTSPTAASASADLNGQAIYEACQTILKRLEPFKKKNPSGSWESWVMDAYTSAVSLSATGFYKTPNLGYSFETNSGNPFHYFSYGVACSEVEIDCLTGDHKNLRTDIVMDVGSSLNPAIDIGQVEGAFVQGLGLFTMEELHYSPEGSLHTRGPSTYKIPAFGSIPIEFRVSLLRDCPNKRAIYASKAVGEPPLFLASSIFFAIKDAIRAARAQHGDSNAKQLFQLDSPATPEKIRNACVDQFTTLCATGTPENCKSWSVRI", "experiment": "Xanthine oxidoreductase activity, uric acid production in heart homogenates", "format": "biochemical", "conditions": "NOS1−/− cardiac homogenates, xanthine 0.2 mmol/L", "procedure": "(§2) Xanthine Oxidoreductase activity: XOR activity was investigated by measuring uric acid and superoxide production. Heart homogenates were passed through a Sephadex G-25 column (GE Healthcare, Piscataway, N.J.) and XOR-dependent superoxide production was measured using Amplex red (Molecular Probes, Eugene, Oreg.) (0.05 mmol/L), horseradish peroxidase (HRP, 0.2 U/ml) and xanthine (0.1 mmol/L). In the assay, xanthine oxidase catalyzes the oxidation of xanthine to uric acid and superoxide. Superoxide spontaneously degrades to hydrogen peroxide (H2O2), and this, in the presence of HRP, reacts with Amplex Red to generate resurofin. Resurofin fluorescence was measured at 590 nm with excitation at 530-560 nm In parallel, the processed effluent was assessed spectrophotometrically at 295 nm for uric acid. The reaction mixture in 50 mM phosphate buffer, pH 7.4, contained 50 μl of the effluent, EDTA-Na2 (1 mmol/L), xanthine (0.2 mmol/L). […] The obtained values were plotted against a standard curve with known concentrations of XOR."}, "[9]": {"molecular_target": "T1, xanthine oxidoreductase (XOR)", "experiment": "Xanthine oxidoreductase activity, Amplex red superoxide production in heart homogenates", "format": "biochemical", "procedure": "as §2"}, "[10]": {"conditions": "100 μM, paced at 4 Hz, NOS1−/− myocytes"}},
  "note": "Read-outs that look alike come from different tables or passages of the source.",
  "data": [
    {"compound": "NCCN(CCN)/[N+]([O-])=N/O", "note": "[DETA/NO, diethylenetriamine/nitric oxide adduct]", "values": [
      {"measurement": "Sarcoplasmic reticulum Ca2+ content (% [Ca2+]i, percent change from baseline)", "setting": "[1]", "value": "42.8±6.5", "unit": "%"},
      {"measurement": "Ca2+ reserves", "setting": "[1]", "value": "increased"},
      {"measurement": "SR content", "setting": "[2]; [10]", "value": "increased"},
      {"measurement": "diastolic Ca2+ waves", "setting": "[2]; [10]", "value": "did not reduce"},
      {"measurement": "sarcomere shortening or calcium transients", "setting": "[3]", "value": "no effect"},
      {"measurement": "suppressed SL and [Ca2+]i responses", "setting": "[4]", "value": "restored towards levels similar to WT"}
    ]},
    {"compound": "CCCCNc1ccc(C(=O)OCCN(C)C)cc1", "note": "[tetracaine]", "values": [
      {"measurement": "spontaneous Ca2+ transients (waves) during 0Na+/0Ca2+ treatment", "setting": "[2]; NOS1−/− and NOS3/NOS1−/− myocytes, 1 mmol/L tetracaine", "value": "abolished"},
      {"measurement": "spontaneous Ca2+ waves", "setting": "[5]; tetracaine 1 mmol/L", "value": "abolished"}
    ]},
    {"compound": "O=[N+]([O-])OCC(CO[N+](=O)[O-])O[N+](=O)[O-]", "note": "[nitroglycerin]", "values": [
      {"measurement": "IC50", "setting": "[6]", "value": "1300 ± 400", "unit": "µM"},
      {"measurement": "concentration that decreased NOX activity / NOX dependent superoxide production", "setting": "[7]", "value": "> 0.01", "unit": "mmol/L"},
      {"measurement": "IC50", "setting": "[7]; NADPH 0.3 mmol/L", "value": 13, "unit": "µM"},
      {"measurement": "Sarcoplasmic reticulum Ca2+ content (% [Ca2+]i, percent change from baseline)", "setting": "[1]", "value": "42.8±6.5", "unit": "%"},
      {"measurement": "Ca2+ reserves", "setting": "[1]", "value": "increased"},
      {"measurement": "XOR enzyme activity (uric acid conversion)", "setting": "[8]", "value": "did display XOR-inhibitory activity"},
      {"measurement": "IC50", "setting": "[9]", "value": "1000 ± 400", "unit": "µM"},
      {"measurement": "Diastolic Ca2+ leak, drug alone", "setting": "[5]; nitroglycerin 10 μmol/L, hydralazine 100 μmol/L", "value": "not abolished"},
      {"measurement": "sarcomere shortening or calcium transients", "setting": "[3]", "value": "no effect"},
      {"measurement": "suppressed SL and [Ca2+]i responses", "setting": "[4]", "value": "restored towards levels similar to WT"}
    ]},
    {"compound": "NNc1nncc2ccccc12", "note": "[hydralazine]", "values": [
      {"measurement": "Sarcoplasmic reticulum Ca2+ content (% [Ca2+]i, percent change from baseline)", "setting": "[1]", "value": "49.2±16.3", "unit": "%"},
      {"measurement": "IC50", "setting": "[9]; NOS1−/− cardiac homogenates, xanthine 0.1 mmol/L, read-out: IC50, Amplex red XOR activity", "value": "700 ± 300", "unit": "µM"},
      {"measurement": "sarcomere shortening or calcium transients", "setting": "[3]", "value": "no effect"}
    ]}
  ]
}
